Laboratory results from publication PMC7887208 (2021).

Legend:
[1] = tested on: Pu22T14T23 (DNA, G4) TGAGGGTGGGTAGGGTGGGTAA; assay: 1H NMR titration and NOESY; details: 70 mM KCl
[2] = tested on: d(CGTACG)2 ("CG") (DNA, duplex) CGTACG; assay: 1H and 31P NMR titration; details: 0.1 M NaCl; 10 mM sodium phosphate pH 7.0, 15 °C; partial intercalation
[3] = tested on: Pu22T14T23 (DNA, G4) TGAGGGTGGGTAGGGTGGGTAA; assay: reverse fluorescence titration (DNA titrated with ligand), EQUISPEC fit; details: 70 mM KCl; 25 mM phosphate pH 6.9, 20 °C; 2.4 µM DNA; overall constant of 1:2 model
[4] = tested on: d(TTAGGGT)4 (DNA, G4) TTAGGGT; assay: 1H NMR titration and NOESY; details: 150 mM KCl; 25 mM K-phosphate pH 6.7, 1 mM EDTA, 25 °C; sites A3-G4 and over G6
[5] = tested on: d(AAGAATTCTT)2 ("AATT") (DNA, duplex) AAGAATTCTT; assay: 1H and 31P NMR titration; details: 0.1 M NaCl; 10 mM sodium phosphate pH 7.0, 15 °C; external interaction, no intercalation
[6] = tested on: d(TTAGGGT)4 (DNA, G4) TTAGGGT; assay: ligand fluorescence titration, EQUISPEC fit; details: 3 µM ligand, 1:1 model
[7] = tested on: Pu22T14T23 (DNA, G4) TGAGGGTGGGTAGGGTGGGTAA; assay: ligand fluorescence titration, EQUISPEC fit; details: 3 µM ligand, 1:1 model
[8] = 70 mM KCl, 25 mM phosphate pH 6.9, 20 °C

| Compound | binding ([1]; 25 mM KH2PO4 pH 6.9, 25 °C, no shift change, no NOE) | binding [2] | overall Kb [3] | binding [4] | binding [5] | Kb [6, 8] | Kb ([6]; PBS (Na+; composition not given), PBS, 20 °C, printed as d(TTAGGG)4) | Kb [7, 8] | binding ([7]; PBS (Na+; composition not given), PBS, 20 °C, stated similar to K+ buffer) | binding ([1]; 25 mM phosphate pH 6.9, 25 °C, stacks on 5' and 3' end tetrads) |
| --- | --- | --- | --- | --- | --- | --- | --- | --- | --- | --- |
| C[C@]1(c2nc3c(C(N)=O)cccc3[nH]2)CCCN1 | no | – | – | – | – | – | – | – | – | – |
| NC(=O)Cn1ccc2ccc(-c3ccc(CN4CCCC4)cc3)nc21 | – | weak | 10^12.8 M^-2 | yes | weak | ~ 10^6.1 M^-1 | ~ 10^5.1 M^-1 | ~ 10^6.1 M^-1 | yes | yes |
